The values that follow come from patent US8853246B2 (Dow AgroSciences LLC, priority 2009, dated 2014).

SMILES strings stand for the structures.

Assay [1] has as its system Sweetpotato Whitefly-Crawler (Bemisia Tabaci). Briefly: Insecticidal test for sweetpotato whitefly-crawler in foliar spray assay (col. BEMITA). It is filed as in vivo. To be noted: sweetpotato whitefly-crawler; for pest or weed control at 200 ppm: Bemisia tabaci, read-out: BEMITA 200 ppm (Corrected % Control, rating). The essentials: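 Cotton plants (one 3-5 cm true leaf) infested with whitefly eggs (100-300/plant), held 5-6 days at 82° F, 50% RH until crawlers developed. Sprayed to runoff at 200 ppm (acetone stock diluted in 0.025% Tween 20), four plants per treatment. Live nymphs counted after 8-9 days; % control by Abbott's correction versus solvent check.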

Assay [2] deals with Green Peach Aphid (Myzus Persicae). Briefly: Insecticidal test for green peach aphid in foliar spray assay (col. MYZUPE). In kind it is in vivo. To be noted: green peach aphid; for pest or weed control at 200 ppm: Myzus persicae, 72 h, read-out: MYZUPE 200 ppm (Corrected % Control, rating). The essentials: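 Cabbage seedlings with 2-3 true leaves, infested with 20-50 wingless adult and nymph aphids one day earlier, sprayed to runoff at 200 ppm (acetone/methanol stock diluted in 0.025% Tween 20), four pots per treatment. After 3 days at ~25 °C, 40% RH, live aphids counted; corrected % control versus solvent-sprayed plants.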

As for `C=CCSCC(C)C(=O)Nc1sc(-c2cccnc2)nc1C` (stereo not drawn) [Compound 224], the pest or weed control at 200 ppm in assay [1] and in assay [2] was 80 to 100% in each case.
Consider `CC(C)C(=O)N(C)c1sc(-c2cccnc2)nc1Cl` [Compound 231], for which the pest or weed control at 200 ppm in assay [1] and in assay [2] was 80 to 100% throughout.
Turning to `CCOC(=O)C(C)C(=O)N(C)c1sc(-c2cccnc2)nc1C` (stereo not drawn) [Compound 232], the pest or weed control at 200 ppm in assay [1] is 80 to 100%; in assay [2] it was under 80%.
Turning to `CCN(C(=O)CCSC)c1sc(-c2cccnc2)nc1C` [Compound 236], the pest or weed control at 200 ppm in assay [1] and in assay [2] was 80 to 100% each time.
With `CCN(C(=O)C(C)(C)CSC)c1sc(-c2cccnc2)nc1C` [Compound 237], the pest or weed control at 200 ppm in assay [1] and in assay [2] was 80 to 100% in each case.
With `CCN(C(=O)CCS(C)(=O)=O)c1sc(-c2cccnc2)nc1C` [Compound 239], the “BEMITA 200 ppm (Corrected % Control, rating)” value in assay [1] was “A (80-100)”. Also, the “MYZUPE 200 ppm (Corrected % Control, rating)” value in assay [2] is given as “A (80-100)”.
Regarding `CN(C(=O)CCS(C)(=O)=O)c1sc(-c2cccnc2)nc1Cl` [Compound 246], the pest or weed control at 200 ppm in assay [1] and in assay [2] was 80 to 100% each time.
For the molecule `CSC(C)CC(=O)N(C)c1sc(-c2cccnc2)nc1Cl` (stereo not drawn) [Compound 248], the pest or weed control at 200 ppm in assay [1] and in assay [2] was 80 to 100% throughout.
For the molecule `COC(=O)CCC(=O)N(C)c1sc(-c2cccnc2)nc1C` [Compound 252], the pest or weed control at 200 ppm in assay [1] and in assay [2] was 80 to 100% throughout.
As for `CCN(C(=O)CC[S+](C)[O-])c1sc(-c2cncc(F)c2)nc1C` (stereo not drawn) [Compound 256], the pest or weed control at 200 ppm in assay [1] and in assay [2] was 80 to 100% in each case.
Turning to `CCN(C(=O)CCS(C)(=O)=O)c1sc(-c2cncc(F)c2)nc1C` [Compound 257], the “BEMITA 200 ppm (Corrected % Control, rating)” value in assay [1] is “A (80-100)”. In assay [2], the “MYZUPE 200 ppm (Corrected % Control, rating)” value was “A (80-100)”.
`CCN(C(=O)C(C)C[S+](C)[O-])c1sc(-c2cncc(F)c2)nc1C` (stereo not drawn) [Compound 258]: the pest or weed control at 200 ppm in assay [1] and in assay [2] was 80 to 100% throughout.
In the case of `CCN(C(=O)C(C)CS(C)(=O)=O)c1sc(-c2cncc(F)c2)nc1C` (stereo not drawn) [Compound 259], the “BEMITA 200 ppm (Corrected % Control, rating)” value in assay [1] is listed as “A (80-100)”. Moreover, the “MYZUPE 200 ppm (Corrected % Control, rating)” value in assay [2] was “A (80-100)”.
On to `CCN(C(=O)C(C)(C)C[S+](C)[O-])c1sc(-c2cncc(F)c2)nc1C` (stereo not drawn) [Compound 260], for which the pest or weed control at 200 ppm in assay [1] and in assay [2] was 80 to 100% each time.
`CCN(C(=O)C(C)(C)CS(C)(=O)=O)c1sc(-c2cncc(F)c2)nc1C` [Compound 261]: in assay [1], the “BEMITA 200 ppm (Corrected % Control, rating)” value was “A (80-100)”. Further, the “MYZUPE 200 ppm (Corrected % Control, rating)” value in assay [2] was “A (80-100)”.
As for `CSCCC(=O)N(C)c1sc(-c2cncc(F)c2)nc1Cl` [Compound 266], the pest or weed control at 200 ppm in assay [1] and in assay [2] was 80 to 100% in each case.
As for `CCN(C(=O)OC(C)(C)C)c1sc(-c2cncc(F)c2)nc1Cl` [Compound 267], the pest or weed control at 200 ppm in assay [1] and in assay [2] was 80 to 100% in each case.
With `CN(C(=O)C(C)(C)C[S+](C)[O-])c1sc(-c2cccnc2)nc1Cl` (stereo not drawn) [Compound 269], the pest or weed control at 200 ppm in assay [1] and in assay [2] was 80 to 100% each time.
Consider `CN(C(=O)CCS(C)(=O)=O)c1sc(-c2cncc(F)c2)nc1Cl` [Compound 273], for which the pest or weed control at 200 ppm in assay [1] and in assay [2] was 80 to 100% throughout.
Regarding `CCN(C(=O)C(C)C)c1sc(-c2cncc(F)c2)nc1Cl` [Compound 275], the pest or weed control at 200 ppm in assay [1] and in assay [2] was 80 to 100% in each case.
Regarding `Cc1nc(-c2cccnc2)sc1N(C)C(=O)CNC(=O)OC(C)(C)C` [Compound 276], the pest or weed control at 200 ppm was under 80% in assay [1] and 80 to 100% in assay [2].
On the same counts, the results for `Cc1nc(-c2cccnc2)sc1N(C)C(=O)[C@H](Cc1ccccc1)NC(=O)OC(C)(C)C` [Compound 280] are under 80% and under 80%.
Take `CSCC[C@H](NC(=O)OC(C)(C)C)C(=O)N(C)c1sc(-c2cccnc2)nc1C` [Compound 281]: the pest or weed control at 200 ppm in assay [1] and in assay [2] was under 80% each time.
Consider `Cc1nc(-c2cccnc2)sc1N(C)C(=O)C(C)NC(=O)OC(C)(C)C` (stereo not drawn) [Compound 282], for which the pest or weed control at 200 ppm in assay [1] and in assay [2] was 80 to 100% each time.
As to `Cc1nc(-c2cccnc2)sc1N(C)C(=O)C(CC(C)C)NC(=O)OC(C)(C)C` (stereo not drawn) [Compound 283], the pest or weed control at 200 ppm in assay [1] and in assay [2] was under 80% in each case.
Take `CCCN(C(=O)OC(C)(C)C)c1sc(-c2cccnc2)nc1C` [Compound 284]: the pest or weed control at 200 ppm in assay [1] and in assay [2] was 80 to 100% each time.
`Cc1nc(-c2cncc(F)c2)sc1N(C)C(=O)CC(C)[S+](C)[O-]` (stereo not drawn) [Compound 285]: the pest or weed control at 200 ppm in assay [1] and in assay [2] was 80 to 100% in each case.
Turning to `CCCN(C(=O)C(C)CSC)c1sc(-c2cccnc2)nc1C` (stereo not drawn) [Compound 286], the pest or weed control at 200 ppm in assay [1] and in assay [2] was 80 to 100% throughout.
Take `Cc1nc(-c2cccnc2)sc1N(C)C(=O)[C@H](CSCc1ccccc1)NC(=O)OC(C)(C)C` [Compound 290]: the pest or weed control at 200 ppm in assay [1] and in assay [2] was under 80% throughout.
Turning to `Cc1nc(-c2cccnc2)sc1N(C)C(=O)C(CCCCNC(=O)OCc1ccccc1)NC(=O)OC(C)(C)C` (stereo not drawn) [Compound 291], the pest or weed control at 200 ppm in assay [1] and in assay [2] was under 80% in each case.
In the case of `Cc1nc(-c2cccnc2)sc1N(C)C(=O)[C@@H]1CCCN1C(=O)OC(C)(C)C` [Compound 292], the results for the pest or weed control at 200 ppm in assay [1] and in assay [2] were 80 to 100% and under 80%, respectively.
In the case of `Cc1nc(-c2cccnc2)sc1N(C)C(=O)C(NC(=O)OC(C)(C)C)C(C)OCc1ccccc1` (stereo not drawn) [Compound 293], the pest or weed control at 200 ppm in assay [1] was under 80%; in assay [2], 80 to 100%.
For `Cc1nc(-c2cccnc2)sc1N(C)C(=O)C(C)N(C)C(=O)OC(C)(C)C` (stereo not drawn) [Compound 294], in that order: under 80% and under 80%.
For `CNC(C)C(=O)N(C)c1sc(-c2cccnc2)nc1C` (stereo not drawn) [Compound 295], in that order: 80 to 100% and under 80%.
Turning to `CSCC(C)C(=O)Nc1sc(-c2cncc(F)c2)nc1Br` (stereo not drawn) [Compound 299], the pest or weed control at 200 ppm in assay [1] and in assay [2] was 80 to 100% throughout.
For the molecule `CCN(C(=O)CC(C)SC)c1sc(-c2cncc(F)c2)nc1C` (stereo not drawn) [Compound 300], the pest or weed control at 200 ppm was under 80% in assay [1] and 80 to 100% in assay [2].
With `Cc1nc(-c2cccnc2)sc1N(CCF)C(=O)OC(C)(C)C` [Compound 301], the pest or weed control at 200 ppm in assay [1] and in assay [2] was 80 to 100% in each case.
For `COCC(C)(C)OC(=O)N(C)c1sc(-c2cccnc2)nc1C` [Compound 302], the pest or weed control at 200 ppm in assay [1] is 80 to 100%; in assay [2] it was under 80%.
`CCN(C(=O)OC(C)(C)C)c1sc(-c2cncc(F)c2)nc1Br` [Compound 303]: the results for the pest or weed control at 200 ppm in assay [1] and in assay [2] were 80 to 100% and under 80%, respectively.
